Series [1] concerns the target CK1δ (Homo sapiens, UniProt P48730). Description: CK1δ kinase assay (Kinase-Glo). It counts as biochemical. The conditions noted are these: 10 μM ATP, 2 nM wild type kinase, 85 min at 25° C. Here is the method:
The reaction mixture was incubated for 85 min at 25° C.; detection was carried out as described for the Kinase-Glo Assay (Promega). Luminescent output was measured on the Perkin Elmer Envision plate reader (PerkinElmer, Waltham, MA).

The nature of series [2]: in vitro. The conditions noted are these: human, Caco-2, pH 7.4. On the procedure: 1) 50 μL and 25 mL of cell culture medium were added to each well of the Transwell insert and reservoir, respectively. And then the HTS transwell plates were incubated at 37° C., 5% CO2 for 1 hour before cell seeding.
2) Caco-2 cells were diluted to 6.86×10^5 cells/mL with culture medium and 50 μL of cell suspension were dispensed into the filter well of the 96-well HTS Transwell plate. Cells were cultivated for 14-18 days in a cell culture incubator at 37° C., 5% CO2, 95% relative humidity. Cell culture medium was replaced every other day, beginning no later than 24 hours after initial plating.
10 mM stock solutions of test compounds were prepared in DMSO. The stock solutions of positive controls were prepared in DMSO at the concentration of 10 mM.
1) Medium was removed from the reservoir and each Transwell insert and replaced with prewarmed fresh culture medium.
2) Transepithelial electrical resistance (TEER) across the monolayer was measured using Millicell Epithelial Volt-Ohm measuring system (Millipore, USA).
3) The Plate was returned to the incubator once the measurement was done.
The TEER value was calculated according to the following equation: TEER measurement (ohms)*Area of membrane (cm^2)=TEER value (ohm·cm^2) TEER value should be greater than 230 ohm·cm^2, which indicates the well-qualified Caco-2 monolayer.
1) The Caco-2 plate was removed from the incubator and washed twice with pre-warmed HBSS (10 mM HEPES, pH 7.4), and then incubated at 37° C. for 30 minutes.
2) The stock solutions of control compounds and test compounds were diluted in DMSO to get 1 mM solutions and then diluted with HBSS (10 mM HEPES, pH 7.4) get 5 μM working solutions. The final concentration of DMSO in the incubation system was 0.5%.
3) To determine the rate of drug transport in the apical to basolateral direction. 125 μL of 5 μM working solution of control compound and test compounds were added to the Transwell insert (apical compartment), and transfer 50 μL sample (DO sample) immediately from the apical compartment to a new 96-well plate. Fill the wells in the receiver plate (basolateral compartment) with 235 μL of HBSS (10 mM HEPES, pH 7.4).
4) To determine the rate of drug transport in the basolateral to apical direction. 285 μL of 5 μM working solution of control compound and test compounds were to the receiver plate wells (basolateral compartment), and transfer 50 μL sample (DO sample) immediately from the basolateral compartment to a new 96-well plate. Fill the wells in the Transwell insert (apical compartment) with 75 μL of HBSS (10 mM HEPES, pH 7.4). The assay was performed in duplicate.
5) The plates were incubated at 37° C. for 2 hours.
Samples were Vortexed for 5 minutes and then centrifuged at 3,220 g for 40 minutes. An aliquot of 100 μL of the supernatant was mixed with an appropriate volume of ultra-pure water before LC-MS/MS analysis.
7) To determine the Lucifer Yellow leakage after 2 hour transport period, stock solution of Lucifer yellow was prepared in water and diluted with HBSS (10 mM HEPES, pH 7.4) to reach the final concentration of 100 μM. 100 μL of the Lucifer yellow solution was added to each Transwell insert (apical compartment), followed by filling the wells in the receiver plate (basolateral compartment) with 300 μL of HBSS (10 mM HEPES, pH 7.4). The plates were Incubated at 37° C. for 30 mins. 80 μL samples were removed directly from the apical and basolateral wells (using the basolateral access holes) and transferred to wells of new 96 wells plates. The Lucifer Yellow fluorescence (to monitor monolayer integrity) signal was measured in a fluorescence plate reader at 485 nm excitation and 530 nm emission.
The apparent permeability coefficient (Papp), in units of centimeter per second, can be calculated for Caco-2 drug transport assays using the following equation: […]

The nature of series [3]: Intrinsic clearance in liver microsomes (human). It counts as in vitro ADME. The conditions noted are these: Human liver microsomes 0.5 mg/mL, 2 μM compound, 37° C.; for microsomal CLint at 2 μM: read-out: in vitro CLint (μL/min/mg protein); for half-life at 2 μM: read-out: in vitro t1/2. Here is the method:
(§1) 1. The master solution was prepared according to Table 4.
(§2) 2. Three separated experiments were performed as follows. a) With NADPH: 10 μL of 20 mg/mL liver microsomes and 40 μL of 10 mM NADPH were added to the incubations. The final concentrations of microsomes and NADPH were 0.5 mg/mL and 1 mM, respectively. b) Without NADPH: 10 μL of 20 mg/mL liver microsomes and 40 μL of ultra-pure H2O were added to the incubations. The final concentration of microsomes was 0.5 mg/mL. c) Heat-inactivated microsomes without NADPH: 10 μL of 20 mg/mL heat-inactivated liver microsomes and 40 μL of ultra-pure H2O were added to the incubations. The final concentration of microsomes was 0.5 mg/mL.
(§3) 3. The reaction was started with the addition of 4 μL of 200 μM test compound solution or control compound solution at the final concentration of 2 μM and carried out at 37° C.
(§4) 4. Aliquots of 50 μL were taken from the reaction solution at 0, 15, 30, 45 and 60 min. The reaction was stopped by the addition of 4 volumes of cold acetonitrile with IS (100 nM alprazolam, 200 nM labetalol, 200 nM caffeine and 2 μM ketoprofen). Samples were centrifuged at 3, 220 g for 40 minutes.
(§5) All calculations were carried out using Microsoft Excel.
(§6) Peak areas were determined from extracted ion chromatograms. The slope value, k, was determined by linear regression of the natural logarithm of the remaining percentage of the parent drug vs. incubation time curve.
(§7) The in vitro half-life (in vitro t1/2) was determined from the slope value:
(§8) Conversion of the in vitro t1/2 (min) into the in vitro intrinsic clearance (in vitro CLint, in μL/min/mg protein) was done using the following equation (mean of duplicate determinations): […]
A general note: Liver microsomes are vesicles of endoplasmic reticulum, rich in cytochrome P450 enzymes.

The nature of series [4]: Intrinsic clearance in liver microsomes (mouse). It counts as in vitro ADME. The conditions noted are these: Mouse liver microsomes 0.5 mg/mL, 2 μM compound, 37° C.; for microsomal CLint at 2 μM: read-out: in vitro CLint (μL/min/mg protein); for half-life at 2 μM: read-out: in vitro t1/2. Here is the method:
as §1, §2, §3, §4, §5, §6, §7, §8

Chain of CK1δ (P48730 whole entry): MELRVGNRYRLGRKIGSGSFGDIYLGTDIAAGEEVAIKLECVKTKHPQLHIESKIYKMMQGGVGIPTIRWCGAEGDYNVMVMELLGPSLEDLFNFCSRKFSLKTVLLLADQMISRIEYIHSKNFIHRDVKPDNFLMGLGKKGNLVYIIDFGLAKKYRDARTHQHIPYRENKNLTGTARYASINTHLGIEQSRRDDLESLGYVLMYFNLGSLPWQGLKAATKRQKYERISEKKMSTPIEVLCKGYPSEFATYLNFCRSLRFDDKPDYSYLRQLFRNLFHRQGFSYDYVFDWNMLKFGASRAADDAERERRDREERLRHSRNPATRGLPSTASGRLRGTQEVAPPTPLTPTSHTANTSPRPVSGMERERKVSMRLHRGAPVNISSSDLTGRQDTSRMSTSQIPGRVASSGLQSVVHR

By EC50 is commonly meant the concentration that produces a half-maximal response. In series [1], `Cn1cc(-c2ccnc3ccnn23)c(-c2ccc(F)cc2)n1` [Compound I-1, 7-(3-(4-fluorophenyl)-1-methyl-1H-pyrazol-4-yl)pyrazolo[1,5-a]pyrimidine] gave an EC50 of 15000 nM. That is a double-digit micromolar value.

In turn, `Cc1cn2nccc(-c3cn(C)nc3-c3ccc(F)cc3)c2n1` [Compound I-4, 8-(3-(4-fluorophenyl)-1-methyl-1H-pyrazol-4-yl)-2-methyli-midazo[1,2-b]pyridazine] showed a concentration for a half-maximal effect (EC50) in series [1] of 2700 nM.

As to `Cn1cc(-c2ccnn3c(N)cnc23)c(-c2ccc(F)cc2)n1` [Compound I-8, 8-(3-(4-fluorophenyl)-1-methyl-1H-pyrazol-4-yl)imidazo[1,2-b]pyridazin-3-amine], a half-maximal response in series [1] (EC50) required 3300 nM.

Turning to `Cn1cc(-c2ccnn3cccc23)c(-c2ccc(F)cc2)n1` [Compound I-9, 4-(3-(4-fluorophenyl)-1-methyl-1H-pyrazol-4-yl)pyrrolo[1,2-b]pyridazine], the EC50 in series [1] is 2500 nM.

For `Cn1cc(-c2ccnn3cnnc23)c(-c2ccc(F)cc2)n1` [Compound I-10, 8-(3-(4-fluorophenyl)-1-methyl-1H-pyrazol-4-yl)-[1,2,4]triazo-lo[4,3-b]pyridazine], the 50% effective concentration (EC50) in series [1] stood at 7900 nM.

In series [1], `COC(=O)c1cn2nccc(-c3cn(C)nc3-c3ccc(F)cc3)c2n1` [Compound I-12, methyl 8-(3-(4-fluorophenyl)-1-methyl-1H-pyrazol-4-yl)imidazo[1,2-b]pyridazine-2-carboxylate] displayed an EC50 of 8600 nM.

`Cn1cc(-c2ccnn3cc(N)nc23)c(-c2ccc(F)cc2)n1` [Compound I-13, 8-(3-(4-fluorophenyl)-1-methyl-1H-pyrazol-4-yl)imidazo[1,2-b]pyridazin-2-amine] yielded an EC50 in series [1] of 2800 nM.

In general, Papp A→B refers to the apparent permeability from the apical to the basolateral side of a cell layer. Lower therefore signals slow passage. For orientation: Papp B→A means the apparent permeability from the basolateral to the apical side of a cell layer. As usually defined, the efflux ratio is the permeability from basolateral to apical divided by that in the opposite direction, in the common usage. On to `Cn1cc(-c2ccnn3cc(CN)nc23)c(-c2ccc(F)cc2)n1` [Compound I-14], for which the midpoint of the response in series [1], the EC50, lay at 200 nM. Besides, in series [2], the Papp A→B at 2 h, 5 μM is 13 ×10⁻⁶ cm/s; the Papp B→A at 2 h, 5 μM came to 31.5 ×10⁻⁶ cm/s; the efflux ratio at 2 h, 5 μM worked out at 2.43. For the same compound, in series [3], the microsomal CLint at 2 μM was 0.93 µL/min/mg and the half-life at 2 μM amounted to 24.9 h. Further, in series [4], the microsomal CLint at 2 μM was 5.9 µL/min/mg and the half-life at 2 μM amounted to 3.92 h.

As to `Cn1cc(-c2ccnn3cc(C(N)=O)nc23)c(-c2ccc(F)cc2)n1` [Compound I-15, 8-(3-(4-fluorophenyl)-1-methyl-1H-pyrazol-4-yl)imidazo[1,2-b]pyridazine-2-carboxamide], it took 500 nM to reach a half-maximal effect in series [1] (EC50). Further, in series [2], the Papp A→B at 2 h, 5 μM was found to be 24.8 ×10⁻⁶ cm/s; the Papp B→A at 2 h, 5 μM was determined as 25.2 ×10⁻⁶ cm/s; the efflux ratio at 2 h, 5 μM was found to be 1.02. In series [4], the microsomal CLint at 2 μM came out at 38.8 µL/min/mg and the half-life at 2 μM worked out at 0.595 h.

With `CNC(=O)c1cn2nccc(-c3cn(C)nc3-c3ccc(F)cc3)c2n1` [Compound I-16, 8-(3-(4-fluorophenyl)-1-methyl-1H-pyrazol-4-yl)-N-methyli-midazo[1,2-b]pyridazine-2-carboxamide], a half-maximal response in series [1] (EC50) required 700 nM. In series [2], the apical-to-basolateral permeability (Papp A→B) at 2 h, 5 μM amounted to 22.4 ×10⁻⁶ cm/s; the basolateral-to-apical permeability (Papp B→A) at 2 h, 5 μM was 20.8 ×10⁻⁶ cm/s; the efflux ratio at 2 h, 5 μM is 0.93. For the same compound, in series [3], the microsomal CLint at 2 μM was 12.5 µL/min/mg and the half-life at 2 μM was determined as 1.85 h. In series [4], the microsomal CLint at 2 μM was 66.8 µL/min/mg and the half-life at 2 μM was 0.346 h.

As for `Cn1cc(-c2ccnn3cc(C(C)(C)O)nc23)c(-c2ccc(F)cc2)n1` [Compound I-17, 2-(8-(3-(4-fluorophenyl)-1-methyl-1H-pyrazol-4-yl)imidazo[1,2-b]pyridazin-2-yl)propan-2-ol], in series [1], the EC50 is 400 nM. In series [2], the Papp A→B at 2 h, 5 μM turned out to be 25.3 ×10⁻⁶ cm/s; the basolateral-to-apical permeability (Papp B→A) at 2 h, 5 μM is 19.4 ×10⁻⁶ cm/s; the efflux ratio at 2 h, 5 μM was 0.77. In series [3], the microsomal CLint at 2 μM was determined as 3.25 µL/min/mg and the half-life at 2 μM came to 7.11 h. Besides, in series [4], the microsomal CLint at 2 μM was found to be 19.1 µL/min/mg and the half-life at 2 μM turned out to be 1.21 h.

In series [1], `CNc1cn2nccc(-c3cn(C)nc3-c3ccc(F)cc3)c2n1` [Compound I-19, 8-(3-(4-fluorophenyl)-1-methyl-1H-pyrazol-4-yl)-N-methyli-midazo[1,2-b]pyridazin-2-amine] registered a concentration giving a half-maximal response (EC50) of 25000 nM.

Turning to `CC(=O)Nc1cn2nccc(-c3cn(C)nc3-c3ccc(F)cc3)c2n1` [Compound I-20, N-(8-(3-(4-fluorophenyl)-1-methyl-1H-pyrazol-4-yl)imidazo [1,2-b]pyridazin-2-yl)acetamide], the midpoint of the response in series [1], the EC50, lay at 2500 nM. Against the preceding compound, the EC50 is about 10-fold lower.

Consider `CC(=O)NCc1cn2nccc(-c3cn(C)nc3-c3ccc(F)cc3)c2n1` [Compound I-21, N-((8-(3-(4-fluorophenyl)-1-methyl-1H-pyrazol-4-yl)imidazo [1,2-b]pyridazin-2-yl)methyl)acetamide], for which the EC50 in series [1] was 5300 nM. This EC50 lies about 2.1-fold higher than the previous one.

For the compound `CNCc1cn2nccc(-c3cn(C)nc3-c3ccc(F)cc3)c2n1` [Compound I-22, 1-(8-(3-(4-fluorophenyl)-1-methyl-1H-pyrazol-4-yl)imidazo[1,2-b]pyridazin-2-yl)-N-methylmethanamine], the concentration for a half-maximal effect (EC50) in series [1] is 300 nM. For the same compound, in series [2], the Papp A→B at 2 h, 5 μM was found to be 12.7 ×10⁻⁶ cm/s; the apparent permeability from basolateral to apical (Papp B→A) at 2 h, 5 μM is 32.1 ×10⁻⁶ cm/s; the efflux ratio at 2 h, 5 μM is 2.52. Moreover, in series [3], the microsomal CLint at 2 μM is 2.64 µL/min/mg and the half-life at 2 μM came out at 8.76 h. For the same compound, in series [4], the microsomal CLint at 2 μM worked out at 18.9 µL/min/mg and the half-life at 2 μM turned out to be 1.22 h.

Regarding `CC(=O)N1CCn2nc(-c3ccc(F)cc3)c(-c3ccnc4[nH]ccc34)c2C1` [Compound I-24, 1-(2-(4-fluorophenyl)-3-(1H-pyrrolo[2,3-b]pyridin-4-yl)-6,7-dihydropyrazolo[1,5-a]pyrazin-5(4H)-yl)ethan-1-one], the EC50 in series [1] was found to be 800 nM. Moreover, in series [2], the Papp A→B at 2 h, 5 μM was found to be 5.28 ×10⁻⁶ cm/s; the apparent permeability from basolateral to apical (Papp B→A) at 2 h, 5 μM was found to be 18.4 ×10⁻⁶ cm/s; the efflux ratio at 2 h, 5 μM came to 3.49. Besides, in series [3], the microsomal CLint at 2 μM worked out at 7.47 µL/min/mg and the half-life at 2 μM stood at 3.09 h. Also, in series [4], the microsomal CLint at 2 μM was 24.7 µL/min/mg and the half-life at 2 μM amounted to 0.935 h.

The record behind these values is patent US20250275965A1, “COMPOUNDS AS CASEIN KINASE INHIBITORS” (GRITSCIENCE BIOPHARMACEUTICALS CO.,LTD., priority 2020, published 2025).
